Reference: patent publication US7439017B2, “Assays for measuring nucleic acid binding proteins and enzyme activities” (BioVeris Corporation, priority 1998, dated 2008)

Tested on: DNA substrate containing the NFkβ consensus sequence
Assay: DNase protection assay for DNA-protein interactions (ECL)
Type: binding
Description: This example illustrates the use of the invention to measure protein-DNA interactions, specifically, the binding of the transcription factor NFkβ with its consensus DNA sequence. A schematic depicting the assay format can be found in the detailed description of the invention. DNAse 1 and NFkβ were purchased from Promega Corp. A DNA substrate containing a consensus DNA sequence for NFk was prepared by Midland Certified Reagent Co. by solid phase synthesis. The sequence of the substrate is shown below. The nucleotides shown in brackets were linked by phosphorothioate linkages; the other linkages were standard phosphodiester bonds. […]
The labeled DNA substrate (50 fmol), poly dI-dC (1 ug, to reduce non-specific protein-DNA interactions) and varying amounts of recombinant NFkβ (p50 subunit) were combined in a 20 uL volume and incubated for 30 min. at room temperature. […] The reaction mixture was introduced into an ORIGEN Analyzer (IGEN International) running in Magnetic Capture Mode and the ECL signal from RuBpy on the magnetic beads was determined in the presence of a solution containing tripropylamine (ORIGEN Assay Buffer, IGEN International). […]
The specificity of the assay was determined by replacing the specific binding protein NFkβ with other DNA binding proteins specific for sequences not present on the DNA substrate (the phosphorothioate containing substrate was used).

- ECL Signal (specificity test, DNase added, phosphorothioate containing NFkβ consensus substrate): 32289
Substance: AP-2: DNA binding protein specific for sequences not present on the DNA substrate
- nuclease protection of the DNA substrate containing the NFkβ consensus sequence (in words): no ability to protect against nuclease attack
